In patent US7947257B2 (Archimedes Development Limited, priority 2003, dated 2011):

Assay: Pharmacokinetic performance of intranasal granisetron formulations in sheep (plasma granisetron by HPLC)
Type: in vivo
Conditions: in words
Description: A group of five female sheep was used, each weighing around 35 kg. The formulations were administered to a randomized cross-over design. […] This dose was provided by administering 0.4 ml of each formulation via a spray device with the dose volume being divided equally between both nostrils.
Blood samples were collected over a 360 minute period following dosing and plasma separated. […] Pharmacokinetic parameters were calculated from the plasma data.

## CN1C2CCCC1CC(NC(=O)c1nn(C)c3ccccc13)C2 (stereo not shown) [Granisetron, 1-methyl-N-(9-methyl-9-azabicyclo[3.3.1]non-3-yl)-1H-indazole-3-carboxamide]
  absorption by the intranasal route: well absorbed
